The subject of data set [1] is bloodstream-form T. b. brucei strain Lister 427. In words: Growth inhibition (LILIT) of bloodstream-form T. b. brucei. Type of data set: cell-based. The note with it: cultured bloodstream form. The procedure: (§1) We used bloodstream and procyclic forms of T. b. brucei strain Lister 427, cell lines 449 [34], constitutively expressing the E. coli tetracycline (Tet) repressor gene via the chromosomally integrated plasmid pHD449 that also confers phleomycin resistance. Bloodstream forms were cultured in HMI-9 medium containing 10% heat-inactivated foetal calf serum (Invitrogen) and 0.18 µg/ml phleomycin (Cayla) at 37°C under water-saturated air with 5% CO2. Procyclic trypanosomes were grown in SDM79 medium supplemented with 15% foetal calf serum and 0.5 µg/ml phleomycin at 28°C under water-saturated air with 5% CO2. The glucose-depleted SDM-80 medium, first employed by Lamour et al., was supplemented with 5 µg/ml hemin, 9% (v/v) dialyzed “glucose free” heat-inactivated foetal calf serum (Sigma) and 1% (v/v) of normal heat-inactivated foetal calf serum (Invitrogen).
(§2) The anti-trypanosomal activity tests were also performed on T. b. brucei according to the “Long Incubation Low Inoculation Test” (LILIT), [39] using cultured bloodstream and procyclic forms of T. b. brucei strain Lister 427, cell line 449 [34].

Data set [2] deals with procyclic T. b. brucei strain Lister 427. In words: Growth inhibition (LILIT) of procyclic T. b. brucei with or without glucose. The data set is classed as cell-based. Here is the method:
as §1, §2
Tests of growth inhibition by B6 were performed on procyclic trypanosomes cultured in medium containing glucose (SDM79 medium), resulting in glycolytic activity for the cells' main energy supply, or without glucose (SDM80 medium), where the proline is the main substrate for free energy production through mitochondrial metabolism. Under these latter conditions, the glycosomal GAPDH would still be needed for gluconeogenesis, to synthesize glucose 6-phosphate for production of glucoconjugates, but the gluconeogenic flux is assumed to be much lower than the glycolytic flux when glucose is present.

Data set [3] concerns T. b. brucei bloodstream-form mitochondria. In words: ROS (H2O2) production by mitochondrial fraction, H2DCFDA fluorescence. The data set is classed as cell-based. The note with it: 10 µM B6, in the presence of G3P. Here is the method:
Bloodstream- and procyclic-form T. b. brucei cells (strain Lister 427, cell line 449) were cultured up to the exponential growth phase and homogenates were obtained by grinding the washed parasite pellets with silicon-carbide abrasive grain (mesh 300) in disruption buffer containing 250 mM sucrose, 25 mM Tris-HCl and l mM EDTA, pH 7.8 (STE buffer). Differential centrifugation was performed as follows: the suspension was taken up in another 3 ml STE buffer and centrifuged at 30 g for 3 min. The supernatant, representing the cell homogenate, was centrifuged at 1,500 g for 10 min giving the nuclear fraction. The post-nuclear supernatant was then centrifuged at 5,000 g for 10 min giving the large-granular (mitochondria-enriched) fraction as pellet. This fraction was resuspended in 300 µl STE buffer.
The method used to measure H2O2 production in T. b. brucei mitochondria is based on the fluorogenic probe 2′,7′-dichlorodihydrofluorescein diacetate (H2DCFDA) which emits an intense green fluorescence only after deacetylation and subsequent oxidation. ROS production by the mitochondrial fraction of bloodstream form T. b. brucei was measured in a 96-well microtiter plate using a fluorescence plate reader (Victor Wallace multiplate reader).
In each well, 0.25 mg mitochondrial protein/ml and 5 µM H2DCFDA to a final volume of 0.2 ml with 10 mM Tris-HCl, 50 mM KCl, 1 mM EDTA, pH 7.5 were present. […]

In a further data set the test system is mammalian cell lines. Also noted: method as in PMID 18353643. To be noted: ratio of ED50 values on mammalian cell lines and trypanosomes; cited from earlier work.
The target of another data set is TbGAPDH (Trypanosoma brucei brucei, UniProt P22512). The data set is described as follows: T. b. brucei glyceraldehyde-3-phosphate dehydrogenase enzyme-coupled spectrophotometric assay. The note with it: for IC50: 10 min pre-incubation. The data set is classed as biochemical. Here is the method: The kinetics of the TbGAPDH reaction was monitored using a continuous enzyme-coupled spectrophotometric assay, as previously described. In brief, TbGAPDH activity was measured following the NADH oxidation at 340 nm, in a coupled assay with 3-phosphoglycerate kinase and using a Jasco V-550 spectrophotometer.
All measurements were performed at 25°C in 0.01 M triethanolamine, pH 7.6, 1.7 mM ATP, 1 mM EDTA, 100 mM KCl, 5 mM MgSO4, 1.7 mM NaHCO3, 25 µg 3-phosphoglycerate kinase. The IC50 values were determined in a final volume of 1 ml in the presence of 120 ng TbGAPDH and 5.6 mM 3-phosphoglycerate (3-PGA), while varying the B6 concentration after a pre-incubation of enzyme plus inhibitor for 10 min. The reaction was started by the addition of 0.2 mM NADH. Each point of the curve was measured in triplicates and the value for IC50 was estimated from graphically plotted dose-response curves.
The type of inhibition was determined with respect to NADH and 3-PGA in consideration of Michaelis-Menten steady-state conditions. To investigate the inhibition mechanism with respect to NADH, TbGAPDH was incubated for 10 min at room temperature with different inhibitor concentrations (0–15 µM) in a total volume of 1 ml. The reaction was initiated by the addition of 5.6 mM 3-PGA and NADH (ranging from 5 µM to 200 µM). The inhibition mechanism with respect to 3-PGA was determined in a similar way. To this end, TbGAPDH was incubated with varying inhibitor concentrations (10 nM–100 µM). The reaction was initiated by the addition of 0.2 mM NADH and 3-PGA (ranging from 50 µM to 5.6 mM). The α and Ki values were obtained from Dixon and secondary plots. The reported values represent the mean of two independent experiments.

Data set [4] relates to Trypanosoma brucei rhodesiense. Also noted: method as in PMID 18353643. The note with it: cited from earlier work.
Data set [5] deals with permeabilized T. b. brucei bloodstream-form cells. The data set is described as follows: Oxygen consumption in permeabilized bloodstream-form cells (Clark electrode). The data set is classed as cell-based. The procedure: Oxygen consumption was monitored in a thermostated vessel at 37°C with a Clark electrode (oxygraph). Measurements in permeabilized bloodstream-form T. brucei were done in buffer 1 (96.9 mM NaCl, 3.1 mM KCl, 5 mM MgCl2, 2 mM Na2HPO4, 90 mM Tris at pH 7.5). Batches of 2×10^7 cells were pelleted, washed in buffer 1 and incubated for 5′ on ice in 1 ml of buffer 1 containing 1 ng digitonin to permeabilize the cells. Subsequently the permeabilized cells were pelleted and washed twice with buffer 1 without digitonin after which the pellet was taken up in 1 ml buffer 1 and transferred to the oxygraph. Substrates and inhibitors were added as described in the text.
B6 and SHAM were dissolved in DMSO. The DMSO concentration used in these oxygen consumption measurements was less than 0.7%.
To determine whether B6 could exert its trypanocidal action also through this mechanism, respiration was monitored in permeabilized T. b. brucei bloodstream-form cells in the presence of B6 and/or SHAM (Fig. 7). SHAM is an inhibitor of TAO, which acts as the final electron acceptor in bloodstream form T. b. brucei.

The target of a further data set is TbGK (Trypanosoma brucei brucei, UniProt Q9NJP9). In words: T. b. brucei glycerol kinase enzyme-coupled spectrophotometric assay. Type of data set: biochemical. To be noted: mean of three independent experiments; 25°C. The procedure: The expression construct has been obtained by subcloning the corresponding GK gene (isolated from T. b. brucei strain Lister 427) from the formerly designed pET15-TbGK plasmid into vector pET28 to create the final expression plasmid pET28-TbGK (unpublished data). TbGK was then expressed in E. coli BL21(DE3)-CodonPlus-RIL grown in 1 liter LB medium supplemented with kanamycin (50 µg/ml) and chloramphenicol (34 µg/ml) for 16 h at 37°C. Expression was induced by adding 1 mM isopropyl β-d-thiogalactanopyranoside (IPTG), and growth was continued for another 2 h at 37°C. […] TbGK was eluted using a 10 column volumes linear imidazole-gradient using buffer A and buffer B. Eluted fractions were analyzed by SDS-PAGE. […] After overnight incubation at 16°C, the digested protein was concentrated and desalted using a Superdex 75 column equilibrated with buffer A. Protein concentration was determined at 280 nm (extinction coefficient = 81650 M^−1 cm^−1). […]
The TbGK activity was measured using a modified version of a continuous enzyme-coupled spectrophotometric assay developed previously. […] The IC50 value of B6 was calculated as the mean of three independent experiments.

The subject of data set [6] is bloodstream form T. b. brucei G6PDH RNAi cell line. In words: Growth inhibition of bloodstream-form T. b. brucei G6PDH RNAi cell line. Type of data set: cell-based. The text has this:
To provide support for the notion that the trypanocidal effect of B6 could in part be attributed to the generation of toxic ROS, we made use of an available bloodstream form T. b. brucei cell line in which glucose-6-phosphate dehydrogenase (G6PDH) expression can be knocked down by RNA interference (RNAi). Previously, it has been shown that this cell line grows equally well as wild-type cells under normal (reducing) growth conditions, but it is highly susceptible to ROS when the G6PDH expression is partially knocked down, an effect attributed to decreased NADPH production.

Data set [7] deals with Trypanosoma brucei rhodesiense. In words: T. b. rhodesiense in vitro growth inhibition. Type of data set: cell-based. The note with it: for IC50: Trypanosoma brucei, RHODESIENSE / STIB900, Figure 1, bloodstream form STIB 900 strain, read-out: IC50 against Trypanosoma brucei rhodesiense parasites. The procedure:
The synthesized compounds were then tested against T. b. rhodesiense parasites as previously reported, and their activities are shown in Figure 1 along with that of B6.
T. b. rhodesiense in vitro growth inhibition activity of 1–3 (Fig. 1) was assessed using bloodstream form of STIB 900 strain, following the procedure reported in Orhan et al..

For the next data set, the system named is Trypanosoma. Also noted: method as in earlier work. The note with it: cited from earlier work.
Details of data set [8]: method as in earlier work. To be noted: cited from earlier work.

Where “and” joins values, the source holds several entries; their conditions need not be identical. Identical values can stand only once. Entries after “also recorded” stand apart in the source; their conditions may differ. Like-named read-outs stand apart in the source and are kept apart here.

Consider six compounds from article PMC3547856, “Naphthoquinone Derivatives Exert Their Antitrypanosomal Activity via a Multi-Target Mechanism” (PLoS Neglected Tropical Diseases, 2013).

One may read the IC50 as the point on the concentration scale where inhibition reaches its midpoint. As usually defined, the Ki is a measure of affinity in units of concentration, obtained from inhibition or displacement. Higher therefore signals weaker binding.

TbGAPDH, sequence (P22512 whole entry): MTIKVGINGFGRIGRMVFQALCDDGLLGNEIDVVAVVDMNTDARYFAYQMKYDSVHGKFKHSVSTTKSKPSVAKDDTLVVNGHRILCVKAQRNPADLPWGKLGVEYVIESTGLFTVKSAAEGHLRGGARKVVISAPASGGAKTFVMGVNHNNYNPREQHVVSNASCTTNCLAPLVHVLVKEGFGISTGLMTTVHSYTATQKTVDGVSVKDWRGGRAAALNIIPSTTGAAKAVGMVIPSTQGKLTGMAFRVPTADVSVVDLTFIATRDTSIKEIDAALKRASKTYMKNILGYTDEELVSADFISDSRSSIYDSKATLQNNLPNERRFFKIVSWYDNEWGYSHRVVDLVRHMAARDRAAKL
TbGK, sequence (Q9NJP9 whole entry): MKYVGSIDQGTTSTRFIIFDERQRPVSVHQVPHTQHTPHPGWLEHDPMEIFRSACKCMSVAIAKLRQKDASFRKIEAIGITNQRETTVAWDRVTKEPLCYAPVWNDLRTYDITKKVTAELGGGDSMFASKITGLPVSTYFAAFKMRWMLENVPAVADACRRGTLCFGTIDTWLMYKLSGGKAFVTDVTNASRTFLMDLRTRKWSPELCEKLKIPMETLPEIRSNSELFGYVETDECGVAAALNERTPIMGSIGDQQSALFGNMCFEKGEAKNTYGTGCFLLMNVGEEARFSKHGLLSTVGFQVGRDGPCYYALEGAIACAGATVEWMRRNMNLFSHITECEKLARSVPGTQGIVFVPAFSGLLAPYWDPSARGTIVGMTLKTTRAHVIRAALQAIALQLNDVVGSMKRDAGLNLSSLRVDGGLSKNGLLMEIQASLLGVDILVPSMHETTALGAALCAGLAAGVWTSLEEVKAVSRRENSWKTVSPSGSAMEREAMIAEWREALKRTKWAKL

As for `O=C1C=C(Oc2ccccc2)C(=O)c2ccccc21` [B6, 2-phenoxy-1,4-naphthoquinone], the “ED50 bloodstream-form T. b. brucei strain Lister 427” value in data set [1] is reported as 24.8 µM. In data set [2] (glucose-grown cells, strain Lister 427), the “fold more susceptible, procyclic versus bloodstream-form” value is 100 fold. The ED50 procyclic trypanosomes is 0.25 ± 0.09 µM and 0.25 µM in data set [2] (medium containing glucose (SDM79)); 0.67 ± 0.16 µM in data set [2] (without glucose (SDM80), proline metabolism). Moreover, the ROS production entry in [3] is given as “able to generate radicals in a significant way; also recorded: considerable production of ROS”. Also, the selectivity index in the data set with mammalian cell lines is given as 74. Besides, the concentration for half-maximal inhibition (IC50) was 9.98 ± 3.53 µM at TbGAPDH (then 1:10 dilution of enzyme and inhibitor, read-out: IC50 TbGAPDH after dilution 1:10); 7.25 ± 1.62 µM at TbGAPDH (standard conditions, without dilution, read-out: IC50 TbGAPDH); 0.08 µM in data set [4] (Figure 1, lead B6, read-out: IC50 against Trypanosoma brucei rhodesiense parasites); 0.9 ± 0.3 µM on TbGK. The inhibition constant Ki on TbGAPDH (variation of 3-PGA) was 5 µM and 4.99 µM; on TbGAPDH (variation of NADH) it was 3.6 µM. The α value at TbGAPDH (with respect to 3-PGA) is reported as 0.4; on TbGAPDH (with respect to NADH), 0.6. The “type of inhibition of TbGAPDH” value at TbGAPDH (with respect to NADH and 3-PGA, double reciprocal plots) is recorded as “non-competitive inhibitor (mixed type)”. For the same compound, the “ED50 against Trypanosoma brucei rhodesiense” value in data set [4] (in vitro cultured parasites) is 0.08 µM. Besides, the oxygen consumption rate entry in data set [5] (cells respiring on 10 mM G3P, absence and presence of SHAM) was “the oxygen consumption rate increased”. The “ED50 induced RNAi cell line” value in [6] (G6PDH expression knocked down by RNAi) is reported as 0.25 µM. Besides, in [6] (non-induced), the “ED50 non-induced RNAi cell line” value is listed as 10.8 µM.

For `Nc1ccc(OC2=CC(=O)c3ccccc3C2=O)cc1` [Compound 1, 2-(4-amino-phenoxy)-[1,4]naphthoquinone], in [7], the IC50 was found to be 0.57 µM. The “times less active than B6” value in data set [7] (anti-T. b. rhodesiense activity relative to B6) turned out to be 7 times.

With `O=C1C(Oc2ccccc2)=CC(=O)c2c(O)cccc21` [Compound 2, 5-hydroxy-2-phenoxy-[1,4]naphthoquinone], in data set [7], the IC50 worked out at 4.4 µM.

Regarding `O=C1C=C(Oc2ccccc2)C(=O)c2c(O)cccc21` [Compound 3, 8-hydroxy-2-phenoxy-[1,4]naphthoquinone], the half-maximal inhibitory concentration (IC50) in [7] came out at 0.85 µM.

On to `O=C(NO)c1ccccc1O` [SHAM, salicylhydroxamic acid, reference compound], for which the respiration entry in data set [5] (2 mM SHAM, 10 mM G3P as electron donor) is reported as “inhibited respiration completely”.

For `CC(C)=CCC1=C(O)C(=O)c2ccccc2C1=O` [lapachol], the anti-trypanosomal profile result in the data set on Trypanosoma is reported as “marked anti-trypanosomal profile”. Besides, the “toxic effects in humans” value in data set [8] is reported as “no serious toxic effects in humans”.
